In US6649643B1, “Imidazol-4-ylmehanols and their use as inhibitors of steroid C17-20 lyase” (Takeda Chemical Industries, Ltd., priority 1999, dated 2003):
Counter-ions that a name gives are not always drawn.

What was measured:
Rat Steroid C17,20-lyase = target: T1, Rat Steroid C17,20-lyase (Rattus norvegicus, UniProt P11715); experiment: Inhibitory activity on a rat steroid C17,20-lyase in vitro; assay type: biochemical; details: rat testicular microsomes, 10 nM [1,2-3H]-17-α-hydroxyprogesterone, NADPH, 7 min at 37° C., products testosterone and androstenedione
T1 construct: Testes excised from 13-week old, male SD rats were homogenized, and testicular microsomes were prepared; from tissue; host or cells: testicular microsomes of 13-week old male SD rats
T1 sequence (P11715 1-507): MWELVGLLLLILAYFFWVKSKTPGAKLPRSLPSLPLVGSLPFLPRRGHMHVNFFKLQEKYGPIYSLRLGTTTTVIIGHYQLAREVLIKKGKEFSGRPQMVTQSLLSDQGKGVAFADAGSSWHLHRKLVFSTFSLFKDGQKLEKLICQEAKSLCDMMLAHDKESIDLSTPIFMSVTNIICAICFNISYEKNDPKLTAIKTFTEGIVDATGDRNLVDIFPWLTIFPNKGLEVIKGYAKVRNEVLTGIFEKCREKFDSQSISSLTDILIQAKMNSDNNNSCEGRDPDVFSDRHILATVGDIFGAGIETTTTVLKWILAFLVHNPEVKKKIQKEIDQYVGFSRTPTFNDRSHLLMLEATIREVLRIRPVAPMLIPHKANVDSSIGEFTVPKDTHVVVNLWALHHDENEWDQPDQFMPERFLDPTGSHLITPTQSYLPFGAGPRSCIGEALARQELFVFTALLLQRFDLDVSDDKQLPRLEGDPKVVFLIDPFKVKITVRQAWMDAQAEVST
Experimental: Assay of Inhibitory Activity on a Rat Steroid C17,20-lyase in Vitro
Inhibitory activity was determined according to the method described in The Prostate, vol. 26, 140-150(1995) with some modifications.
Testes excised from 13-week old, male SD rats were homogenized, and testicular microsomes were prepared by a series of centrifugation. The microsome protein (7 μg/10 μl) was added to 101 μl of 100 mM phosphate buffer (pH 7.4) in which 10 nM (final concentration) [1,2-3H]-17-α-hydroxyprogesterone, NADPH, and test compounds were dissolved. The reaction mixture was incubated for 7 min at 37° C., terminated by addition of 40 μl of ethyl acetate, and briefly centrifuged. The substrate and the products (testosterone and androstenedione) in the upper phase were separated by silica gel thin layer chromatography. Detection of the spots and measurement of the radioactivity were performed by a BAS 2000 Bioimage analyzer. The concentration of the test compounds necessary to reduce the concentration of the products by 50% (The concentration in the control group in which no test compound was added was taken as 100%) was calculated, and shown in Table 1.

[1] = test system: testosterone biosynthesis; experiment: Inhibitory activity on testosterone biosynthesis in rats; assay type: in vivo, rat; details: male SD rats, oral, 50 mg/kg, serum testosterone 2 h later by radioimmunoassay, percentage of control group
Experimental: Assay of Inhibitory Activity on Testosterone Biosynthesis in Rats
Test compounds were orally administered to 9-week old, male SD (Sprague-Dawley rats at a dose of 50 mg/kg. Two-h later blood was taken and testosterone concentration in serum was measured by radioimmunoassay. The percentage of the testosterone concentration of the groups of rats, which received test compounds, to that of the control group was calculated, and regarded as the inhibitory activity.

Structure (SMILES)	IC50 (Rat Steroid C17,20-lyase) [µM]	Inhibitory activity on testosterone bioxynthesis (T/C, %) [1] [%]
COc1cc2ccc([C@](O)(c3c[nH]cn3)C(C)C)cc2cc1OC [Example 22, (S)-(−)-1-(6,7-Dimethoxy-2-naphthyl)-1-(1H-imidazol-4-yl)-2-methyl-1-propanol.fumaric Acid Salt]	0.0033	
CC(C)C(O)(c1ccc2cc(-c3cnco3)ccc2c1)c1c[nH]cn1 (stereo not drawn) [Example 7, 1-(1H-Imidazol-4-yl)-2-methyl-1-(6-(1,3-oxazol-5-yl)-2-naphthyl)-1-propanol]	0.014	
CC(C)C(O)(c1ccc2cc(-c3ccco3)ccc2c1)c1c[nH]cn1 (stereo not drawn) [Example 2, 1-(6-(2-Furyl)-2-naphthyl)-1-(1H-imidazol-4-yl)-2-methyl-1-propanol]	0.028	
CCC(O)(c1ccc2c3c(ccc2c1)OCC3)c1c[nH]cn1 (stereo not drawn) [Example 18, 1-(1,2-Dihydronaphtho[2,1-b]furan-7-yl)-1-(1H-imidazol-4-yl)-1-propanol]	0.018	7.4
CNC(=O)c1ccc2cc(C(O)(c3c[nH]cn3)C(C)C)ccc2c1 (stereo not drawn) [Example 9, 6-(1-Hydroxy-1-(1H-imidazol-4-yl)-2-methyl-propyl)-N-methyl-2-naphthamide]	0.0061	4.5
CC(C)C(O)(c1ccc2cc(-c3cn[nH]c3)ccc2c1)c1c[nH]cn1 (stereo not drawn) [Example 6, 1-(1H-Imidazol-4-yl)-2-methyl-1-(6-(1H-pyrazol-4-yl)-2-naphthyl)-1-propanol]	0.015	10
